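All cell lines were grown in 96-well plates and treated with compound for 48 hours. TGI marks complete inhibition of growth.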
What was measured:
Assay in all cases: DTP human tumour cell line panel, 48 h
[1] = test system: KM12 colon
[2] = test system: HOP-92 NSCLC
[3] = test system: U251 CNS
[4] = test system: SK-MEL-28 melanoma
[5] = test system: CAKI-1 renal
[6] = test system: OVCAR-4 ovarian
[7] = test system: T-47D breast
[8] = test system: NCI-H460 lung
[9] = test system: MCF7 breast
[10] = test system: NCI-H522 lung
[11] = test system: NCI-H23 lung
[12] = test system: ACHN renal
[13] = test system: NCI-H226 lung
[14] = test system: SW-620 colon
[15] = test system: UO-31 renal
[16] = test system: HCT-15 colon
[17] = test system: SK-MEL-2 melanoma
[18] = test system: CCRF-CEM leukemia
[19] = test system: OVCAR-5 ovarian
[20] = test system: SNB-75 CNS
[21] = test system: MDA-MB-435
[22] = test system: SK-OV-3 ovarian
[23] = test system: MOLT-4 leukemia
[24] = test system: UACC-62 melanoma
[25] = test system: SNB-19 CNS
[26] = test system: A549 NSCLC
[27] = test system: SF-539 CNS
[28] = test system: HL-60(TB) leukemia
[29] = test system: TK-10 renal
[30] = test system: EKVX NSCLC
[31] = test system: NCI/ADR-RES ovarian
[32] = test system: SF-268 CNS
[33] = test system: MDA-N
[34] = test system: 786-0 renal
[35] = test system: UACC-257 melanoma
[36] = test system: OVCAR-8 ovarian
[37] = test system: DU-145 prostate
[38] = test system: IGROV1 ovarian
[39] = test system: HS 578T breast
[40] = test system: SN12C renal
[41] = test system: K-562 leukemia
[42] = test system: COLO 205 colon
[43] = test system: SF-295 CNS
[44] = test system: M14 melanoma
[45] = test system: OVCAR-3 ovarian
[46] = test system: MDA-MB-231 breast
[47] = test system: HCC-2998 colon
[48] = test system: A498 renal
[49] = test system: MALME-3M melanoma
[50] = test system: BT-549 breast
[51] = test system: RXF 393 renal
[52] = test system: SR leukemia
[53] = test system: RPMI-8226 leukemia
[54] = test system: PC-3 prostate
[55] = test system: HCT-116 colon
[56] = test system: HOP-62 NSCLC
[57] = test system: LOX IMVI melanoma
[58] = test system: SK-MEL-5 melanoma
[59] = test system: HT29 colon

Compound: CNc1cccnc1/C=N/NC(N)=S
- TGI [1]: > 10 µM
- TGI [2]: > 10 µM
- TGI [3]: > 10 µM
- TGI [4]: > 10 µM
- TGI [5]: > 10 µM
- TGI [6]: > 10 µM
- TGI [7]: > 10 µM
- TGI [8]: > 10 µM
- TGI [9]: > 10 µM
- TGI [10]: > 10 µM
- TGI [11]: > 6.65 µM
- TGI [12]: 1.76 µM
- TGI [13]: > 10 µM
- TGI [14]: > 10 µM
- TGI [15]: 4.5 µM
- TGI [16]: > 7.32 µM
- TGI [17]: > 10 µM
- TGI [18]: > 10 µM
- TGI [19]: 9.78 µM
- TGI [20]: > 7.14 µM
- TGI [21]: > 10 µM
- TGI [22]: > 10 µM
- TGI [23]: > 10 µM
- TGI [24]: 3.07 µM
- TGI [25]: > 10 µM
- TGI [26]: 9.91 µM
- TGI [27]: 1.54 µM
- TGI [28]: > 6.25 µM
- TGI [29]: > 10 µM
- TGI [30]: > 10 µM
- TGI [31]: 9.94 µM
- TGI [32]: > 10 µM
- TGI [33]: > 10 µM
- TGI [34]: > 10 µM
- TGI [35]: > 10 µM
- TGI [36]: > 10 µM
- TGI [37]: 3.89 µM
- TGI [38]: > 10 µM
- TGI [39]: > 10 µM
- TGI [40]: > 8.25 µM
- TGI [41]: > 10 µM
- TGI [42]: > 10 µM
- TGI [43]: 5.71 µM
- TGI [44]: 3.94 µM
- TGI [45]: > 8.6 µM
- TGI [46]: > 10 µM
- TGI [47]: > 10 µM
- TGI [48]: > 10 µM
- TGI [49]: > 10 µM
- TGI [50]: > 10 µM
- TGI [51]: > 10 µM
- TGI [52]: > 10 µM
- TGI [53]: > 10 µM
- TGI [54]: > 10 µM
- TGI [55]: > 8.26 µM
- TGI [56]: > 8.19 µM
- TGI [57]: > 10 µM
- TGI [58]: > 10 µM
- TGI [59]: > 10 µM

From PubChem BioAssay (NCI)
